From ChEMBL document CHEMBL3580552, “Antiplasmodial and Cytotoxic Triterpenoids from the Bark of the Cameroonian Medicinal Plant Entandrophragma congoënse” (J Nat Prod, 2015) come the findings set out here.

Each structure is given as a SMILES string.

In one series the test system is Plasmodium falciparum. Description: Antiplasmodial activity against chloroquine-sensitive erythrocytic stage Plasmodium falciparum NF54 assessed as [3H]hypoxanthine incorporation after 48 to 72 hrs by Betaplate liquid scintillation counting. The format is functional, organism-based.
The next series deals with L6. In words: Cytotoxicity against rat L6 cells after 72 hrs by Alamar blue assay. It is filed as cell-based. As to conditions: L6, 72 h. On the technique in general: Alamar Blue is a resazurin reagent that responds to reducing activity.
Series [1] in a line: Selectivity index, ratio of IC50 for rat L6 cells to IC50 for erythrocytic stages of Plasmodium falciparum NF54. It is filed as toxicity, cell-based. As to conditions: read-out: Ratio IC50.

Turning to `CC(C)=CC(=O)O[C@H]1CC[C@]2(C)[C@H]3CC[C@]45C[C@]4(CC[C@H]5[C@@H]4C[C@H]([C@@H]5O[C@@]5(C)CO)O[C@H]4O)[C@]3(C)[C@H](O)C[C@H]2C1(C)C`, the figures for the half-maximal inhibitory concentration (IC50) in the series on Plasmodium falciparum and in the series with L6 (read-out: IC50) were 1.3 µM and 8.6 µM, respectively. Moreover, the selectivity ratio in series [1] was determined as 6.8.
For `CC(=O)O[C@@H]1C[C@H]2C(C)(C)C(=O)C=C[C@]2(C)[C@H]2CC[C@]3(C)C(=CC[C@H]3[C@@H]3C[C@H]([C@@H]4OC4(C)C)OC3=O)[C@@]21C`, the IC50 (usually the concentration that inhibits the measured activity by half) is 0.44 µM in the series with Plasmodium falciparum and 5.3 µM with L6 (read-out: IC50). The selectivity ratio in series [1] stood at 12.1.
Regarding `CC(=O)O[C@@H]1C[C@H]2C(C)(C)[C@H](O)CC[C@]2(C)[C@H]2CC[C@]3(C)C(=CC[C@H]3[C@@H]3C[C@H]([C@H](O)C(C)(C)O)OC3=O)[C@@]21C`, the IC50 in the series on Plasmodium falciparum is 2 µM; in the series with L6 (read-out: IC50) it was 42.4 µM. In addition, in series [1], the selectivity ratio was 21.
As for `C=C(C)[C@@H]1CC=C2[C@H](CC[C@@]3(C)[C@H]([C@@H](C)CC(O)C(O)C(C)(C)O)CC[C@]23C)[C@@]1(C)CCC(=O)O` (stereo partly drawn), the figures for the IC50 with Plasmodium falciparum and in the series with L6 (read-out: IC50) were 19.3 µM and 56.1 µM, respectively. Further, the selectivity ratio in series [1] is 2.9.
On to `CC(C)=CC(=O)O[C@H]1CC[C@]2(C)[C@H]3CC[C@]45C[C@]4(CC[C@H]5[C@@H]4C[C@H]([C@H](O)C(C)(C)O)O[C@H]4O)[C@]3(C)[C@H](O)C[C@H]2C1(C)C`, for which the 50% inhibitory concentration (IC50) with Plasmodium falciparum turned out to be 1.4 µM; with L6 (read-out: IC50) it was 6.5 µM. Also, in series [1], the selectivity ratio amounted to 4.4.
Regarding `CC(C)(O)[C@H](O)[C@H]1C[C@@H]([C@@H]2CC=C3[C@]4(C)[C@H](O)C[C@H]5C(C)(C)C(=O)C=C[C@]5(C)[C@H]4CC[C@]32C)C(=O)O1`, the figures for the half-maximal inhibitory concentration (IC50) with Plasmodium falciparum and with L6 (read-out: IC50) were 1.3 µM and 32.3 µM, respectively. Moreover, the selectivity ratio in series [1] came out at 25.2.
Consider `COc1cc([C@@H]2c3cc4c(cc3[C@H](O)[C@H]3COC(=O)[C@H]23)OCO4)cc(OC)c1OC` [PODOFILOX], for which inhibition in the series on L6 was half-maximal at 0.012 µM (IC50).
In the case of `CC(=O)O[C@@H]1CC[C@]2(C)[C@H]3CC[C@]4(C)C(=CC[C@H]4[C@@H]4C[C@H]([C@H](O)C(C)(C)O)OC4=O)[C@]3(C)[C@H](OC(C)=O)C[C@H]2C1(C)C`, the figures for the half-maximal inhibitory concentration (IC50) in the series with Plasmodium falciparum and in the series with L6 (read-out: IC50) were 0.87 µM and 11 µM, respectively. For the same molecule, the selectivity ratio in series [1] worked out at 12.7.
In the case of `CO[C@@H]1O[C@@H]([C@H](O)C(C)(O)CO)C[C@H]1[C@@H]1CC[C@]23C[C@]12CC[C@@H]1[C@@]2(C)CC[C@H](OC(=O)C=C(C)C)C(C)(C)[C@@H]2C[C@@H](O)[C@]13C` (stereo partly drawn), the IC50 with Plasmodium falciparum is 1.3 µM; with L6 (read-out: IC50), 11.9 µM. In addition, the selectivity ratio in series [1] was 9.
Take `CC(=O)O[C@@H]1C[C@H]2C(C)(C)C(=O)C=C[C@]2(C)[C@H]2CC[C@]3(C)C(=CC[C@H]3[C@@H]3C[C@H]([C@H](O)C(C)(C)O)OC3=O)[C@@]21C`: the concentration for half-maximal inhibition (IC50) in the series with Plasmodium falciparum stood at 0.67 µM; in the series with L6 (read-out: IC50) it was 70.6 µM. In addition, in series [1], the selectivity ratio stood at 105.
